Results as given in ChEMBL document CHEMBL3885861, “Open TG-GATES”.

Species: Rattus norvegicus
Assay: Open TG-GATES - Regimen: Single
Assay type: toxicity, organism-based, Sprague-Dawley
Set-up: regimen Single, gender Male, age 6 weeks
Conditions: in vivo, po, 0 mg/kg, route gavage, dose level Control; for APTT / Bas / Eos / Fbg / Hb / Ht / Lym / MCH / MCHC / MCV / Mono / Neu / PT / Plat / RBC / Ret / WBC: tissue Blood; for KIDNEY_L / KIDNEY_R / KIDNEY_TOTAL: tissue Kidney; for LIVER: tissue Liver; for A/G / ALP / ALT / AST / BUN / CRE / Ca / Cl / DBIL / GLC / IP / K / LDH / Na / PL / RALB / TBIL / TC / TG / TP / gamma-GTP: tissue Plasma

With C[C@H]1O[C@H](O[C@H]2[C@H](O)[C@@H](O)[C@@H](O[C@H]3[C@H](O)[C@@H](O)C(O)O[C@@H]3CO)O[C@@H]2CO)[C@H](O)[C@@H](O)[C@@H]1N[C@H]1C=C(CO)[C@@H](O)[C@H](O)[C@H]1O (some centres not stated) [ACARBOSE] the TERMINAL_BW (3 h) was 196.9 g, the APTT (3 h) was 16.9 s and the Bas (3 h) was 0.2%. For the same compound, the Eos (3 h) was 0.8%, the Fbg (3 h) was 275 mg/dL and the Hb (3 h) was 13.4 g/dL. The Ht (3 h) was 41.3%, the Lym (3 h) was 78.6% and the MCH (3 h) was 20.8 pg. For the same compound, the MCHC (3 h) was 32.6%, the MCV (3 h) was 63.7 fL and the Mono (3 h) was 2.6%. For the same compound, the Neu (3 h) was 16.8%, the PT (3 h) was 13.6 s and the Plat (3 h) was 116.5 x10_4/uL. For the same compound, the RBC (3 h) was 647.8 x10_4/ul, the Ret (3 h) was 8.1% and the WBC (3 h) was 97.1 x10_2/uL. For the same compound, the KIDNEY_L (3 h) was 0.9 g, the KIDNEY_R (3 h) was 0.9 g and the KIDNEY_TOTAL (3 h) was 1.8 g. The LIVER (3 h) was 8.8 g, the A/G (3 h) was 0.9 and the ALP (3 h) was 1499.8 IU/L. It also gave an ALT (3 h) of 36 IU/L, an AST (3 h) of 72.6 IU/L and a BUN (3 h) of 10.4 mg/dL. The CRE (3 h) was 0.2 mg/dL, the Ca (3 h) was 10.7 mg/dL and the Cl (3 h) was 105.2 meq/L. For the same compound, the DBIL (3 h) was 0.006 mg/dL, the GLC (3 h) was 174.6 mg/dL and the IP (3 h) was 9.5 mg/dL. The K (3 h) was 4 meq/L, the LDH (3 h) was 58.2 IU/L and the Na (3 h) was 141.4 meq/L. The PL (3 h) was 133 mg/dL, the RALB (3 h) was 2.5 g/dL and the TBIL (3 h) was 0.06 mg/dL. The TC (3 h) was 73.6 mg/dL, the TG (3 h) was 46.8 mg/dL and the TP (3 h) was 5.2 g/dL. The gamma-GTP (3 h) was 1 IU/L, the TERMINAL_BW (6 h) was 197.1 g and the APTT (6 h) was 17.2 s. It also gave a Bas (6 h) of 0.2%, an Eos (6 h) of 0.6% and a Fbg (6 h) of 286 mg/dL. For the same compound, the Hb (6 h) was 13.2 g/dL, the Ht (6 h) was 40.8% and the Lym (6 h) was 73.6%. It also gave an MCH (6 h) of 21 pg, an MCHC (6 h) of 32.3% and an MCV (6 h) of 64.9 fL. For the same compound, the Mono (6 h) was 2.6%, the Neu (6 h) was 22.4% and the PT (6 h) was 13.7 s. It also gave a Plat (6 h) of 125.4 x10_4/uL, an RBC (6 h) of 629.8 x10_4/ul and a Ret (6 h) of 8.4%. For the same compound, the WBC (6 h) was 74.2 x10_2/uL, the KIDNEY_L (6 h) was 0.9 g and the KIDNEY_R (6 h) was 0.9 g. For the same compound, the KIDNEY_TOTAL (6 h) was 1.9 g, the LIVER (6 h) was 8.2 g and the A/G (6 h) was 0.9. The ALP (6 h) was 1467.2 IU/L, the ALT (6 h) was 35.2 IU/L and the AST (6 h) was 72.2 IU/L. The BUN (6 h) was 8.8 mg/dL, the CRE (6 h) was 0.2 mg/dL and the Ca (6 h) was 10.5 mg/dL. The Cl (6 h) was 104.6 meq/L, the DBIL (6 h) was 0.004 mg/dL and the GLC (6 h) was 166 mg/dL. The IP (6 h) was 10.4 mg/dL, the K (6 h) was 3.7 meq/L and the LDH (6 h) was 65 IU/L. For the same compound, the Na (6 h) was 141.6 meq/L, the PL (6 h) was 136.8 mg/dL and the RALB (6 h) was 2.5 g/dL. For the same compound, the TBIL (6 h) was 0.064 mg/dL, the TC (6 h) was 73.4 mg/dL and the TG (6 h) was 72.4 mg/dL. The TP (6 h) was 5.2 g/dL, the gamma-GTP (6 h) was 1.4 IU/L and the TERMINAL_BW (9 h) was 198.4 g. The APTT (9 h) was 18.3 s, the Bas (9 h) was 0% and the Eos (9 h) was 0.8%. For the same compound, the Fbg (9 h) was 306.6 mg/dL, the Hb (9 h) was 13.2 g/dL and the Ht (9 h) was 40.7%. For the same compound, the Lym (9 h) was 75.2%, the MCH (9 h) was 20.9 pg and the MCHC (9 h) was 32.3%. It also gave an MCV (9 h) of 64.8 fL, a Mono (9 h) of 1.8% and a Neu (9 h) of 21%. The PT (9 h) was 13.6 s, the Plat (9 h) was 122.9 x10_4/uL and the RBC (9 h) was 629.4 x10_4/ul. For the same compound, the Ret (9 h) was 8.4%, the WBC (9 h) was 90.2 x10_2/uL and the KIDNEY_L (9 h) was 0.9 g. For the same compound, the KIDNEY_R (9 h) was 0.9 g, the KIDNEY_TOTAL (9 h) was 1.8 g and the LIVER (9 h) was 8.1 g. For the same compound, the A/G (9 h) was 0.9, the ALP (9 h) was 1467.6 IU/L and the ALT (9 h) was 35.2 IU/L. For the same compound, the AST (9 h) was 69.4 IU/L, the BUN (9 h) was 8.6 mg/dL and the CRE (9 h) was 0.2 mg/dL. For the same compound, the Ca (9 h) was 10.4 mg/dL, the Cl (9 h) was 104.2 meq/L and the DBIL (9 h) was 0.006 mg/dL. It also gave a GLC (9 h) of 177.8 mg/dL, an IP (9 h) of 10.2 mg/dL and a K (9 h) of 3.9 meq/L. It also gave an LDH (9 h) of 63.8 IU/L, a Na (9 h) of 140.8 meq/L and a PL (9 h) of 133.6 mg/dL. The RALB (9 h) was 2.5 g/dL, the TBIL (9 h) was 0.06 mg/dL and the TC (9 h) was 73.6 mg/dL. For the same compound, the TG (9 h) was 52.4 mg/dL, the TP (9 h) was 5.2 g/dL and the gamma-GTP (9 h) was 1.2 IU/L. The TERMINAL_BW (24 h) was 211.4 g, the APTT (24 h) was 19.4 s and the Bas (24 h) was 0%. The Eos (24 h) was 1%, the Fbg (24 h) was 269.6 mg/dL and the Hb (24 h) was 13.2 g/dL. For the same compound, the Ht (24 h) was 40.1%, the Lym (24 h) was 73.6% and the MCH (24 h) was 20.7 pg. It also gave an MCHC (24 h) of 32.8%, an MCV (24 h) of 63 fL and a Mono (24 h) of 3.2%. It also gave a Neu (24 h) of 21.4%, a PT (24 h) of 13.1 s and a Plat (24 h) of 113.4 x10_4/uL. It also gave an RBC (24 h) of 636.6 x10_4/ul, a Ret (24 h) of 7.9% and a WBC (24 h) of 81.7 x10_2/uL. It also gave a KIDNEY_L (24 h) of 1 g, a KIDNEY_R (24 h) of 0.9 g and a KIDNEY_TOTAL (24 h) of 1.9 g. The LIVER (24 h) was 9.8 g, the A/G (24 h) was 0.9 and the ALP (24 h) was 1381.8 IU/L. It also gave an ALT (24 h) of 42.2 IU/L, an AST (24 h) of 71.6 IU/L and a BUN (24 h) of 14.2 mg/dL. For the same compound, the CRE (24 h) was 0.2 mg/dL, the Ca (24 h) was 10.7 mg/dL and the Cl (24 h) was 103.8 meq/L. The DBIL (24 h) was 0.006 mg/dL, the GLC (24 h) was 175.8 mg/dL and the IP (24 h) was 8.3 mg/dL. For the same compound, the K (24 h) was 3.9 meq/L, the LDH (24 h) was 60.8 IU/L and the Na (24 h) was 141.4 meq/L. For the same compound, the PL (24 h) was 139.8 mg/dL, the RALB (24 h) was 2.5 g/dL and the TBIL (24 h) was 0.062 mg/dL. The TC (24 h) was 78 mg/dL, the TG (24 h) was 59.2 mg/dL and the TP (24 h) was 5.3 g/dL. It also gave a gamma-GTP (24 h) of 1 IU/L.
